Broadly, the cell viability is the share of living cells, or the viability signal relative to a control.

Data set [1] has as its system C2C12 immortalized mouse myoblast. Put plainly: MTT cytotoxicity assay on C2C12 myoblasts. The format is cell-based. Particulars: for cell viability: 72 h, 0.1 wt %; for tolerance of hydrogels in words: C2C12 on hydrogels (1 wt %), 24 h and 72 h, MTT. The protocol:
(§1) L929 murine fibroblast and C2C12 immortalized mouse myoblast cell lines (both from ECACC General Cell Collection) were grown in Dulbecco’s modified Eagle’s medium (DMEM) supplemented with 10% fetal bovine serum, 20 mM HEPES, and 1% GlutaMAX. The cells were maintained at pH 7.4, 37 °C, and 5% CO2 in 25 cm^2 cell culture flasks.
(§2) Cells were seeded in 96-well plates at a density of 0.6 × 10^4 cells per well. Cells were then treated with peptides dissolved in the medium at the concentrations of 0.1 and 1 × 10^–4 wt %. To test cytocompatibility in the presence of the hydrogels, wells were filled with 1 wt % mG and pG hydrogels before seeding. At the end of the treatment (after 24 or 72 h), cell viability was assessed using an MTT [3-(4, 5-dimethylthiazolyl-2)-2, 5-diphenyltetrazolium bromide] assay. In brief, after the removal of the culture medium, MTT, dissolved in DMEM at a concentration of 0.5 mg/mL, was added to the cells and incubated for 4 h at 37 °C. The resulting formazan crystals were dissolved by adding dimethyl sulfoxide. Absorbance values of blue formazan were determined at 560 nm using an automatic plate reader. Cell survival was expressed as a percentage of viable cells in the presence of peptides, compared to control cells grown in their absence. The assay was repeated three times, and the results were averaged. Statistical significance was tested using multiple Welch’s t-tests. All analyses were conducted using Prism 7.
In general terms: Tetrazolium assays rely on reduction of a dye to a coloured formazan, in cell work by metabolically active cells.

Another data set deals with L929 murine fibroblast. Put plainly: MTT cytotoxicity assay on L929 fibroblasts. The data set is classed as cell-based, mouse. Particulars: for cell survival: 1 wt %; for cell viability: 0.1 wt %. As for the experimental part:
as §1, §2

Assay in data set [2]: not given
The source holds these as a separate data set.

Assay in data set [3]: not given
This is another data set of the same source.

Residues, ends and D or L forms follow the SMILES beside them.

`CCCCCCCCCCCCCC(=O)NCC(=O)NCC(=O)NCC(=O)N[C@@H](CCCNC(=N)N)C(=O)NCC(=O)N[C@@H](CC(=O)O)C(=O)N[C@@H](CO)C(=O)O` [mG, C14-GGGRGDS] (HELM PEPTIDE1{[CCCCCCCCCCCCCC(=O)[*:2]].G.G.G.R.G.D.S}$$$$V2.0) had a nanotape mean thickness in hydrogel of 13.6 nm. Besides, in data set [1], the cell viability amounted to 84.4 ± 9.6% and the “tolerance of hydrogels in words” value was “reasonably well tolerated”. The compound further came in with a cell survival in the data set on L929 murine fibroblast (24 h) of 92.6 ± 8.8%. Besides, in the data set on L929 murine fibroblast (72 h), the cell viability is on record as 30.7 ± 4.7% and the cell survival was determined as 94.6 ± 12.6%.
Turning to `CCCCCCCCCCCCCC(=O)N[C@@H](Cc1c[nH]c2ccccc12)C(=O)NCC(=O)NCC(=O)N[C@@H](CCCNC(=N)N)C(=O)NCC(=O)N[C@@H](CC(=O)O)C(=O)N[C@@H](CO)C(=O)O` [mW, C14-WGGRGDS] (HELM PEPTIDE1{[CCCCCCCCCCCCCC(=O)[*:2]].W.G.G.R.G.D.S}$$$$V2.0), the nanotube radius in data set [2] amounted to 750 Å. Also, the cell viability amounted to 72.3 ± 10.2% in data set [1] and 28.1 ± 3.1% in the data set on L929 murine fibroblast (72 h).
In the case of `CCCCCCCCCCCCCCCC(=O)NCC(=O)NCC(=O)NCC(=O)N[C@@H](CCCNC(=N)N)C(=O)NCC(=O)N[C@@H](CC(=O)O)C(=O)N[C@@H](CO)C(=O)O` [pG, C16-GGGRGDS] (HELM PEPTIDE1{[CCCCCCCCCCCCCCCC(=O)[*:2]].G.G.G.R.G.D.S}$$$$V2.0), the cell viability in data set [1] is recorded as 86.0 ± 6.8%; in the data set with L929 murine fibroblast (72 h), 31.8 ± 5.1%. Also, the “tolerance of hydrogels in words” value in data set [1] was “reasonably well tolerated”.
`CCCCCCCCCCCCCCCC(=O)N[C@@H](Cc1c[nH]c2ccccc12)C(=O)NCC(=O)NCC(=O)N[C@@H](CCCNC(=N)N)C(=O)NCC(=O)N[C@@H](CC(=O)O)C(=O)N[C@@H](CO)C(=O)O` [pW, C16-WGGRGDS] (HELM PEPTIDE1{[CCCCCCCCCCCCCCCC(=O)[*:2]].W.G.G.R.G.D.S}$$$$V2.0): the cell viability in data set [1] came out at 73.3 ± 2.8%; with L929 murine fibroblast (72 h), 36.3 ± 5.1%. In data set [3], this compound returned a fiber mean diameter of 4 nm.

The values are drawn from article PMC9832505, “Cell Adhesion Motif-Functionalized Lipopeptides: Nanostructure and Selective Myoblast Cytocompatibility” (Biomacromolecules, 2022).
